Experimental data taken from PubChem BioAssay (NCI).
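Abbreviation: GI50, concentration required for 50% inhibition of growth. The concentration for full growth arrest is given as TGI.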

How the values were obtained:
Assay in all cases: growth of human tumour cells (NCI), 384-well format
T-47D breast = tested on: T-47D breast
SK-MEL-28 melanoma = tested on: SK-MEL-28 melanoma
MOLT-4 leukemia = tested on: MOLT-4 leukemia
UACC-257 melanoma = tested on: UACC-257 melanoma
MALME-3M melanoma = tested on: MALME-3M melanoma
MDA-MB-231 breast = tested on: MDA-MB-231 breast
IGROV1 ovarian = tested on: IGROV1 ovarian
MCF7 breast = tested on: MCF7 breast
MDA-MB-468 breast = tested on: MDA-MB-468 breast
SN12C renal = tested on: SN12C renal
HCT-15 colon = tested on: HCT-15 colon
SF-295 CNS = tested on: SF-295 CNS
OVCAR-8 ovarian = tested on: OVCAR-8 ovarian
HCT-116 colon = tested on: HCT-116 colon
K-562 leukemia = tested on: K-562 leukemia
COLO 205 colon = tested on: COLO 205 colon
786-0 renal = tested on: 786-0 renal
PC-3 prostate = tested on: PC-3 prostate
TK-10 renal = tested on: TK-10 renal
NCI-H226 lung = tested on: NCI-H226 lung
SK-MEL-5 melanoma = tested on: SK-MEL-5 melanoma
A549 NSCLC = tested on: A549 NSCLC
CAKI-1 renal = tested on: CAKI-1 renal
U251 glioblastoma = tested on: U251 glioblastoma
OVCAR-5 ovarian = tested on: OVCAR-5 ovarian
DU-145 prostate = tested on: DU-145 prostate
UACC-62 melanoma = tested on: UACC-62 melanoma
SK-MEL-2 melanoma = tested on: SK-MEL-2 melanoma
HT29 colon = tested on: HT29 colon
NCI-H23 lung = tested on: NCI-H23 lung
HL-60(TB) leukemia = tested on: HL-60(TB) leukemia
HOP-92 NSCLC = tested on: HOP-92 NSCLC
SNB-75 CNS = tested on: SNB-75 CNS
RXF 393 renal = tested on: RXF 393 renal
UO-31 renal = tested on: UO-31 renal
ACHN renal = tested on: ACHN renal
SR leukemia = tested on: SR leukemia
A498 renal = tested on: A498 renal
SF-539 CNS = tested on: SF-539 CNS
OVCAR-3 ovarian = tested on: OVCAR-3 ovarian
HOP-62 NSCLC = tested on: HOP-62 NSCLC
OVCAR-4 ovarian = tested on: OVCAR-4 ovarian
SF-268 CNS = tested on: SF-268 CNS
BT-549 breast = tested on: BT-549 breast
NCI-H322M lung = tested on: NCI-H322M lung
MDA-MB-435 melanoma = tested on: MDA-MB-435 melanoma
HS 578T breast = tested on: HS 578T breast
NCI-H522 lung = tested on: NCI-H522 lung
SK-OV-3 ovarian = tested on: SK-OV-3 ovarian
KM12 colon = tested on: KM12 colon
EKVX NSCLC = tested on: EKVX NSCLC
SNB-19 CNS = tested on: SNB-19 CNS
SW-620 colon = tested on: SW-620 colon
NCI-H460 NSCLC = tested on: NCI-H460 NSCLC
M14 melanoma = tested on: M14 melanoma

## COc1cccc2c1nc(C(F)F)n2-c1nc(-c2ccc(NS(=O)(=O)CCN(C)C)cc2)nc(N2CCOCC2)n1
T-47D breast
  GI50: 24 nM
  TGI: 120 nM
SK-MEL-28 melanoma
  GI50: 191 nM
  TGI: 17100 nM
MOLT-4 leukemia
  GI50: 46.8 nM
  TGI: 176 nM
UACC-257 melanoma
  GI50: 292 nM
  TGI: 1360 nM
MALME-3M melanoma
  GI50: 127 nM
  TGI: 874 nM
MDA-MB-231 breast
  GI50: 319 nM
  TGI: 1800 nM
IGROV1 ovarian
  GI50: 24.9 nM
  TGI: 96.3 nM
MCF7 breast
  GI50: 21.3 nM
  TGI: 299 nM
MDA-MB-468 breast
  GI50: 76.2 nM
  TGI: 431 nM
SN12C renal
  GI50: 229 nM
  TGI: 12400 nM
HCT-15 colon
  GI50: 300 nM
  TGI: 1450 nM
SF-295 CNS
  GI50: 161 nM
  TGI: 1100 nM
OVCAR-8 ovarian
  GI50: 323 nM
  TGI: 1590 nM
HCT-116 colon
  GI50: 320 nM
  TGI: 1510 nM
K-562 leukemia
  GI50: 634 nM
  TGI: 1950 nM
COLO 205 colon
  GI50: 219 nM
  TGI: 1100 nM
786-0 renal
  GI50: 491 nM
  TGI: 1690 nM
PC-3 prostate
  GI50: 122 nM
  TGI: 1200 nM
TK-10 renal
  GI50: 127 nM
  TGI: 1220 nM
NCI-H226 lung
  GI50: 195 nM
  TGI: 873 nM
SK-MEL-5 melanoma
  GI50: 93.8 nM
  TGI: 371 nM
A549 NSCLC
  GI50: 297 nM
  TGI: 1260 nM
CAKI-1 renal
  GI50: 200 nM
  TGI: 1420 nM
U251 glioblastoma
  GI50: 1020 nM
  TGI: 2200 nM
OVCAR-5 ovarian
  GI50: 266 nM
  TGI: 5440 nM
DU-145 prostate
  GI50: 263 nM
  TGI: 1390 nM
UACC-62 melanoma
  GI50: 206 nM
  TGI: 1250 nM
SK-MEL-2 melanoma
  GI50: 282 nM
  TGI: 1540 nM
HT29 colon
  GI50: 238 nM
  TGI: 1470 nM
NCI-H23 lung
  GI50: 148 nM
  TGI: 1040 nM
HL-60(TB) leukemia
  GI50: 116 nM
  TGI: 1100 nM
HOP-92 NSCLC
  GI50: 167 nM
  TGI: 998 nM
SNB-75 CNS
  GI50: 29.6 nM
  TGI: 361 nM
RXF 393 renal
  GI50: 22.4 nM
  TGI: 364 nM
UO-31 renal
  GI50: 125 nM
  TGI: 384 nM
ACHN renal
  GI50: 144 nM
  TGI: 1050 nM
SR leukemia
  GI50: 153 nM
  TGI: 408 nM
A498 renal
  GI50: 171 nM
  TGI: 961 nM
SF-539 CNS
  GI50: 179 nM
  TGI: 1230 nM
OVCAR-3 ovarian
  GI50: 138 nM
  TGI: 1110 nM
HOP-62 NSCLC
  GI50: 285 nM
  TGI: 1420 nM
OVCAR-4 ovarian
  GI50: 144 nM
  TGI: 1550 nM
SF-268 CNS
  GI50: 374 nM
  TGI: 1780 nM
BT-549 breast
  GI50: 250 nM
  TGI: 1400 nM
NCI-H322M lung
  GI50: 151 nM
  TGI: 1090 nM
MDA-MB-435 melanoma
  GI50: 255 nM
  TGI: 1390 nM
HS 578T breast
  GI50: 92.1 nM
  TGI: 377 nM
NCI-H522 lung
  GI50: 98.7 nM
  TGI: 689 nM
SK-OV-3 ovarian
  GI50: 83.5 nM
  TGI: 362 nM
KM12 colon
  GI50: 110 nM
  TGI: 1220 nM
EKVX NSCLC
  GI50: 53.9 nM
  TGI: 426 nM
SNB-19 CNS
  GI50: 3800 nM
  TGI: 22100 nM
SW-620 colon
  GI50: 418 nM
  TGI: 1780 nM
NCI-H460 NSCLC
  GI50: 302 nM
  TGI: 1550 nM
M14 melanoma
  GI50: 390 nM
  TGI: 1710 nM
